Legend:
IPOHE = assay: Post-emergence foliar-applied weed control, greenhouse (Example I); format: in vivo, Ipomoea hederacea Jacq.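 As to Visual Weed Control (%) - 20 DAA IPOHE Obs: visual score 0 no injury to 100 complete kill versus untreated plants.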
From the text: (§1) Evaluation of Post-emergence Foliar-Applied Herbicidal Mixtures for Weed Control in Direct Seeded Rice
(§2) Seeds or nutlets of the desired test plant species were planted in a soil matrix prepared by mixing a loam or sandy loam soil (e.g., 28.6 percent silt, 18.8 percent clay, and 52.6 percent sand, with a pH of about 5.8 and an organic matter content of about 1.8 percent) and calcareous grit in an 80 to 20 ratio. The soil matrix was contained in plastic pots with a volume of 1 quart and a surface area of 83.6 square centimeters (cm^2). When required to ensure good germination and healthy plants, a fungicide treatment and/or other chemical or physical treatment was applied. The plants were grown for 8-22 days in a greenhouse with an approximate 14 h photoperiod which was maintained at about 29° C. during the day and 26° C. during the night. Nutrients (Peters Excel® 15-5-15 5-Ca 2-Mg and iron chelate) were applied in the irrigation solution as needed and water was added on a regular basis. Supplemental lighting was provided with overhead metal halide 1000-Watt lamps as necessary. The plants were employed for testing when they reached the first through fourth true leaf stage.
(§3) Treatments consisted of the acid or esters of 4-amino-3-chloro-5-fluoro-6-(4-chloro-2-fluoro-3-methoxy-phenyl)pyridine-2-carboxylic acid (Compound A), each formulated as an SC (suspension concentrate), and various herbicidal components alone and in combination. Forms of Compound A were applied on an acid equivalent basis.
(§4) Other herbicidal components were applied on an active ingredient basis and included 4-hydroxyphenyl pyruvate dioxygenase (HPPD)-inhibiting herbicides mesotrione formulated as Callisto®, sulcotrione formulated as Mikado®, pyrazolynate formulated as Sunbird® 10% GR, and benzobicyclon formulated as Benzobicyclon 3.5%.
(§5) Treatment requirements were calculated based upon the rates being tested, the concentration of active ingredient or acid equivalent in the formulation, and a 12 mL application volume at a rate of 187 L/ha.
(§6) For treatments comprised of formulated compounds, measured amounts of compounds were placed individually in 25 mL glass vials and diluted in a volume of 1.25% (v/v) Agri-Dex® crop oil concentrated to obtain 12× stock solutions. […] Application solutions were prepared by adding an appropriate amount of each stock solution (e.g., 1 mL) and diluted to the appropriate final concentrations with the addition of 10 mL of an aqueous mixture of 1.25% (v/v) crop oil concentrate so that the final spray solutions contained 1.25+/−0.05% (v/v) crop oil concentrate.
(§7) For treatments comprised of formulated and technical compounds, weighed amounts of the technical materials were placed individually in 25 mL glass vials and dissolved in a volume of 97:3 v/v acetone/DMSO to obtain 12× stock solutions, and measured amounts of the formulated compounds were placed individually in 25 mL glass vials and diluted in a volume of 1.5% (v/v) crop oil concentrate or water to obtain 12× stock solutions. […] Application solutions were prepared by adding an appropriate amount of each stock solution (e.g., 1 mL) and diluted to the appropriate final concentrations with the addition of an appropriate amount of an aqueous mixture of 1.5% (v/v) crop oil concentrate so that the final spray solutions contained 1.25% (v/v) crop oil concentrate. As required, additional water and/or 97:3 v/v acetone/DMSO was added to individual application solutions so that the final acetone and DMSO concentrations of the application solutions being compared were 8.1% and 0.25%, respectively.
(§8) All stock solutions and applications solutions were visually inspected for compound compatibility prior to application. Spray solutions were applied to the plant material with an overhead Mandel track sprayer equipped with a 8002E nozzles calibrated to deliver 187 L/ha over an application area of 0.503 m^2 at a spray height of 18 to 20 inches (46 to 50 cm) above average plant canopy height. […]

ECHCG = assay: as above; format: in vivo, Echinochloa crusgalli (L.) Beauv.
From the text: as §1, §2, §3, §4, §5, §6, §7, §8

Structure (SMILES) | Visual Control (%) - 20 DAA IPOHE Obs (IPOHE; 4.38 gae/ha) [%] | Visual Control (%) - 20 DAA IPOHE Obs (IPOHE; 8.75 gae/ha) [%] | Visual Control (%) - 20 DAA IPOHE Obs (IPOHE; 17.5 gae/ha) [%] | Visual Weed Control (%) - 21 DAA IPOHE Obs (IPOHE; 17.5 gae/ha) [%] | Visual Weed Control (%) - 21 DAA IPOHE Obs (IPOHE; 35 gae/ha) [%] | Visual Weed Control (%) - 20 DAA ECHCG Obs (ECHCG; 4.38 gae/ha) [%] | Visual Weed Control (%) - 22 DAA ECHCG Obs (ECHCG; 5.3 gae/ha) [%] | Visual Weed Control (%) - 20 DAA ECHCG Obs (ECHCG; 8.75 gae/ha) [%] | Visual Weed Control (%) - 22 DAA ECHCG Obs (ECHCG; 10.6 gae/ha) [%] | Visual Weed Control (%) - 20 DAA IPOHE Obs (IPOHE; 4.38 gae/ha) [%] | Visual Weed Control (%) - 20 DAA IPOHE Obs (IPOHE; 8.75 gae/ha) [%] | Visual Weed Control (%) - 20 DAA IPOHE Obs (IPOHE; 17.5 gae/ha) [%] | Visual Weed Control (%) - 22 DAA ECHCG Obs (ECHCG; 4.38 gae/ha) [%] | Visual Weed Control (%) - 22 DAA ECHCG Obs (ECHCG; 8 gae/ha) [%] | Visual Weed Control (%) - 22 DAA ECHCG Obs (ECHCG; 8.75 gae/ha) [%] | Visual Weed Control (%) - 22 DAA ECHCG Obs (ECHCG; 16 gae/ha) [%] | Visual Weed Control (%) - 22 DAA ECHCG Obs (ECHCG; 32 gae/ha) [%]
COc1c(Cl)ccc(-c2nc(C(=O)O)c(Cl)c(N)c2F)c1F [Compound A Acid, 4-amino-3-chloro-6-(4-chloro-2-fluoro-3-methoxyphenyl)-5-fluoropyridine-2-carboxylic acid] | 10 | 35 | 40 | 25 | 48 | 25 | 65 | 80 | 55 | – | – | – | – | – | – | – | –
COc1c(Cl)ccc(-c2nc(C(=O)OCc3ccccc3)c(Cl)c(N)c2F)c1F [Compound A Benzyl Ester, benzyl ester of 4-amino-3-chloro-5-fluoro-6-(4-chloro-2-fluoro-3-methoxy-phenyl)pyridine-2-carboxylic acid] | – | – | – | – | – | 40 | – | – | – | 10 | 10 | 20 | 40 | 35 | 60 | 65 | 80
